Laboratory results as given in ChEMBL document CHEMBL6120986, “In silico inspired design of urea noscapine congeners as anticancer agents: Chemical synthesis and experimental evaluation using breast cancer cells and a xenograft mouse model” (Eur J Med Chem, 2025).

What was measured:
MCF7 = test: Antiproliferative activity against human MCF7 cells assessed as inhibition of cell proliferation incubated for 72 hrs by SRB assay; assay type: functional, cell-based; conditions: MCF7, 72 h
MDA-MB-231 = test: Antiproliferative activity against human MDA-MB-231 cells assessed as inhibition of cell proliferation incubated for 72 hrs by SRB assay; assay type: functional, cell-based; conditions: MDA-MB-231, 72 h
[1] = Cytotoxicty against HEK cells incubated for 72 hrs by SRB assay; assay type: toxicity, cell-based; conditions: human

IC50 (MCF7) | IC50 (MDA-MB-231) | SMILES | IC50 at 72 h [1]
38.2 µM | 45.7 µM | CCc1ccc(NC(=O)Nc2c3c(c(OC)c4c2OCO4)[C@H]([C@H]2OC(=O)c4c2ccc(OC)c4OC)N(C)CC3)cc1 | 290 µM
39.7 µM | 54 µM | COc1ccc2c(c1OC)C(=O)O[C@@H]2[C@H]1c2c(cc3c(c2OC)OCO3)CCN1C [NOSCAPINE] | 229 µM
